What was measured:
[1] = test system: osteoclasts; test: Inhibitory effect on resorption activity of osteoclast (resorption pit area on calcium phosphate-coated plate); assay type: cell-based, mice; conditions: compared to control
Procedure: After finishing culture, the plate was washed with distilled water, and 50 μl/well of 5% sodium hypochlorite was added to the plate. The plate was let alone for 5 min, washed again with distilled water to remove the adherent cells, and dried at room temperature. Then, the area of formed resorption pits was calculated by means of Image Pro Plus software (Media Cybernetics Ver. 3.0).

[2] = In vitro pharmacokinetics: metabolic stability in liver microsome; assay type: in vitro ADME; conditions: human liver microsome 1 mg/ml, 20 μM compound
Procedure: Metabolic stabilities of the compounds of the Examples were examined by employing microsome samples prepared from the human liver.
Each 20 μM of the compounds were reacted with 1 mg/ml of liver microsome and the half-lives and one-hour stabilities of the compounds were determined.

[3] = test system: rats; test: In vivo acute toxicity test (LD50); conditions: single dose, 2 weeks observation
Procedure: In order to determine the acute toxicities of the compounds prepared in Examples, 6-week old specific pathogen-free (SPF) rats each weighing […] were divided into groups of 10 rat each.
In case of subcutaneous administration, each of the compounds was dissolved in 5% PEG400 solution to a concentration of 20 mg/ml, the resulting solution was serially diluted with 5% PEG400 solution to concentrations of 5, 2.5, 1.25 and 0.625 mg/ml, and the dilutions were subcutaneously injected once to the rats at a dose of 10 ml/kg body weight.
In case of oral administration, each of the compounds was dissolved in soybean oil to a concentration of 180 mg/ml, the resulting solution was serially diluted with soybean oil to concentrations of 80, 20 and 5 mg/ml, and the dilutions were orally administered once to the rats at a dose of 20 ml/kg body weight. […]
During 2 weeks after the administration of the compounds, the death rate, clinical symptoms and weight changes of the rats were observed, and hematological and biochemical tests on blood samples were performed. Then, the rats were sacrificed and the internal organs were visually examined to check any abnormal signs in the organs of chest and abdomen.

[4] = test system: osteoclast (TRAP-positive multinuclear cell) formation; test: Inhibitory effect on osteoclast formation (TRAP staining); assay type: cell-based, mice; conditions: 8 days culture with M-CSF and RANKL, compared to control
How it was run: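 Non-adherent bone marrow cells from 7–9-week-old female mice, 2×10^5 per well, cultured 8 days with M-CSF (20 ng/ml), RANKL (30 ng/ml) and compound at 0.3, 1.0 or 3 μM. Formation scored by TRAP staining after fixation, 1 h at 37 °C, pH 5.0.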

[5] = test system: MG-63 cells; test: Cytotoxicity test against osteoblast (MTT); assay type: cell-based, human
Procedure: (§1) In order examine the toxicities of the compounds of the Examples against osteoclast pregenitors, pregenitor cells were aliquotted onto a 96-well microplate at a density of 2×10^5 cells per well, treated with 2, 4 and 8 μM of the test compounds, respectively, and cultured for 48 hrs in α-MEM supplemented with 20 ng/ml of M-CSF (Peprotech, USA) using 37° C. incubator (5% CO2). At 3 hrs before the culture was finished, 50 μl of MTT (3-(4,5-dimethylthiazol-2-yl)-2,5-diphenyltetrazolium bromide) solution (50 μg/ml) was added to each well. Upon completion of the cell culture, the supernatant was removed, and the precipitated dye was reacted with 100 μl of isopropanol/0.04 N HCl at room temperature for 30 min to dissolve it. The absorbances of the wells were measured at 550 nm, and the relative absorbance of each well relative to that of the control (set as 100) is shown in Table 6.
In order to examine the toxicity of the compounds of the Examples against osteoblasts, human osteosarcoma-derived cell line, MG-63 (ATCC No. CRL-1427) cells were treated with 0.1, 0.3, 1.0 and 3.0 μM of the compounds of the Examples, and cultured in DMEM supplemented with 10% FBS (fetal bovine serum).

[6] = test system: osteoclast pregenitor cells; test: Cytotoxicity against osteoclast pregenitor (MTT); assay type: cell-based, mice; conditions: 48 hrs, absorbance at 550 nm
Procedure: as §1

[7] = In vivo pharmacokinetics using female mice (serum concentration, HPLC)
Procedure: Female mice each weighing […] were divided into groups of 5 mice each. The mice were anesthetized with ether, catheterized in their femoral artery and vein, respectively, and administered with 0.5 mg/kg body weight of compounds 234 and 274, and 5 mg/kg body weight of compounds 388, 404 and 415, respectively, via intravenous injection. Alternatively, 15 mg/kg body weight of compound 274 and 10 mg/kg body weight of compound 234 were orally administered to the mice.
At 0, 5, 10, 15 and 30 minutes and 1, 2, 4, 6, 9 and 12 hours after the intravenous injection, or at 0, 10, 20 and 40 minutes and 1, 2, 4, 6, 9 and 12 hours after the oral administration, 0.3 ml blood samples were taken from the mice through femoral artery. The blood samples were kept on an ice bath for 30 minutes and centrifuged at 3,000 rpm for 10 minutes to obtain a supernatant (serum). The supernatant samples were stored at −20° C.
Standard solution: Compounds 234, 274, 388, 404 and 415 were respectively dissolved in methanol to a concentration of 1 mg/ml to obtain stock solutions. The stock solutions were diluted with methanol to obtain standard solutions having concentrations of 40, 20, 10, 2, 1, 0.5, 0.2, 0.05 and 0.02 μg/ml, respectively.
Standard calibration curve: A stand calibration curve was prepared by employing calibration concentrations of 0.002, 0.005, 0.02, 0.05, 0.1, 0.2, 1, 2 and 4 μg/ml.
10 μl each of the standard solutions prepared above was added to 100 μl of normal serum sample and diluted 10 times. 250 μl of acetonitrile was added to the resulting dilution and the mixture was centrifuged for 10 minutes to obtain a supernatant. 300 μl of the supernatant was dried by evaporation under a nitrogen atmosphere and reconstituted by adding 50 μl of methanol. 20 μl of the resulting solution was analyzed by HPLC to prepare a standard calibration curve. HPLC was performed with Shimadzu ODS2 column (4.6×250 mm, 5 μm by employing a mixture of methanol/water (90/10 (v/v)) as the mobile phase at a flow rate of 1.2 ml/min, and measuring the absorbance at 240 nm.
Extraction: 100 μl of the serum sample obtained in (4-2-1) was put into a 1 ml microtube and 10 μl of methanol was added thereto. 250 μl of acetonitrile was added to the microtube and the mixture was centrifuged for 10 minutes to obtain a supernatant. 300 μl of the supernatant was dried by evaporation under a nitrogen atmosphere and reconstituted by adding 50 μl of methanol. 20 μl of the resulting solution was analyzed by the HPLC method as above.
Average concentrations of the compounds in the serum samples were plotted in a semi-log scale against the time lapsed after the administration, and the pharmacokinetic parameters were determined as a non-compartment open model by employing WinNonlin® program (Pharsight Corporation).

SMILES | Reduction (%) of the resorption pit area of osteoclasts ([1]; 0.3 uM) | Reduction (%) of the resorption pit area of osteoclasts ([1]; 1 uM) | Reduction (%) of the resorption pit area of osteoclasts ([1]; 3 uM) | One-hour stability [2] | LD50 ([3]; PO) | LD50 ([3]; SC) | Half-life [2] | relative absorbance relative to that of the control (set as 100), MTT ([5]; 0.33 uM) | relative absorbance relative to that of the control (set as 100), MTT ([5]; 1 uM) | relative absorbance relative to that of the control (set as 100), MTT ([5]; 3 uM) | Osteoclast formation inhibitory effects (%) ([4]; 0.3 μM) | Osteoclast formation inhibitory effects (%) ([4]; 1.0 μM) | Osteoclast formation inhibitory effects (%) ([4]; 3.0 μM) | relative absorbance relative to that of the control (set as 100), MTT ([5]; 0.11 uM) | further results
CO/C=C(/C(=O)OC)c1ccc(Cl)cc1COc1ccc(OCC2CC2)cc1 | 100% | 100% | 100% | 70% | 100-300 mg/kg body weight | 5 mg/kg body weight | – | – | – | – | – | – | – | – | half-life at 20 µM ([2]; liver microsomes): > 3 h; inhibition at 0.3 µM ([4]; Mus musculus, Osteoclast, 192 h, 0.3 μM, read-out: Osteoclast formation inhibitory effects (%)): 98%; inhibition at 1 µM ([4]; Mus musculus, Osteoclast, 192 h, 1.0 μM, read-out: Osteoclast formation inhibitory effects (%)): 100%; inhibition at 3 µM ([4]; Mus musculus, Osteoclast, 192 h, 3.0 μM, read-out: Osteoclast formation inhibitory effects (%)): 100%
CCCCCCOc1cccc(/C(C)=N/OCc2ccccc2/C(=C\OC)C(=O)OC)c1 [compound 15, (E)-methyl 2-(((({1E}-1-(3-(n-hexyloxy)phenyl)ethylidene)amino)oxy)methyl)phenyl-3-methoxyacrylate] | 41% | 57% | 93% | 33% | >2000 mg/kg body weight | >50 mg/kg body weight | 0.615 h | 105 | 85 | 76 | 92% | 100% | 100% | – | –
C=CCOc1ccc(OCc2ccccc2/C(=C\OC)C(=O)OC)cc1 [compound 179] | 86% | 100% | 100% | 70% | 500 mg/kg body weight | 42 mg/kg body weight | >3 h | 111 | 108 | 106 | 84% | 100% | 100% | 117 | –
C=CCOc1cccc(OCc2ccccc2/C(=C\OC)C(=O)OC)c1 [compound 211] | 96% | 100% | 100% | 60% | 500 mg/kg body weight | 51 mg/kg body weight | 1.77 h | 101 | 105 | 106 | 23% | 96% | 100% | 103 | relative absorbance relative to that of the control (set as 100), MTT ([6]; 2 uM): 88; relative absorbance relative to that of the control (set as 100), MTT ([6]; 4 uM): 103; relative absorbance relative to that of the control (set as 100), MTT ([6]; 8 uM): 103
CO/C=C(/C(=O)OC)c1ccccc1COc1cccc(OCCN2CCOCC2)c1 [compound 234] | 95% | 100% | 100% | 83% | 100-300 mg/kg body weight | 7 mg/kg body weight | >3 h | 98 | 115 | 97 | 25% | 100% | 100% | – | AUC (area under the curve of blood concentration versus time) ([7]; I.V.): 477.6 ± 96.4 µg·h/mL; CL (clearance) ([7]; I.V.): 1.1 ± 0.2 mL/h; Half-life ([7]; I.V.): 10.6 ± 4.8 h; Vd (volume of distribution) ([7]; I.V.): 0.0152 ± 0.0052 L/kg; AUC (area under the curve of blood concentration versus time) ([7]; Oral): 680.4 ± 426.2 µg·h/mL; CL (clearance) ([7]; Oral): 19.5 ± 10.6 mL/h; Half-life ([7]; Oral): 12.8 ± 7.7 h; Vd (volume of distribution) ([7]; Oral): 0.3544 ± 0.2456 L/kg; bioavailability ([7]; oral versus I.V.): 35.4%
C=CCOc1ccc(OCc2cc(Cl)ccc2/C(=C\OC)C(=O)OC)cc1 [compound 264] | 100% | 100% | 100% | 80% | 269 mg/kg body weight | 25 mg/kg body weight | >3 h | 107 | 104 | 92 | 98% | 100% | 100% | 103 | –
